Source: PubChem BioAssay (NCI)
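Values below derive from 48-hour exposures of cells grown in 96-well plates, with endpoints linearly interpolated between the two concentrations bracketing the appropriate inhibition level. Abbreviation: GI50, concentration required for 50% inhibition of growth. TGI marks complete inhibition of growth.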

Legend:
Experiment in all cases: NCI anticancer screen, dose series, 48 h
OVCAR-3 ovarian = system: OVCAR-3 ovarian
HS 578T breast = system: HS 578T breast
SK-MEL-28 melanoma = system: SK-MEL-28 melanoma
NCI-H460 lung = system: NCI-H460 lung
K-562 leukemia = system: K-562 leukemia
OVCAR-4 ovarian = system: OVCAR-4 ovarian
NCI/ADR-RES ovarian = system: NCI/ADR-RES ovarian
SF-268 CNS = system: SF-268 CNS
DU-145 prostate = system: DU-145 prostate
M14 melanoma = system: M14 melanoma
TK-10 renal = system: TK-10 renal
KM12 colon = system: KM12 colon
UACC-62 melanoma = system: UACC-62 melanoma
HCC-2998 colon = system: HCC-2998 colon
BT-549 breast = system: BT-549 breast
HOP-92 NSCLC = system: HOP-92 NSCLC
EKVX NSCLC = system: EKVX NSCLC
A498 renal = system: A498 renal
ACHN renal = system: ACHN renal
MDA-MB-435 = system: MDA-MB-435
MALME-3M melanoma = system: MALME-3M melanoma
786-0 renal = system: 786-0 renal
SR leukemia = system: SR leukemia
SK-MEL-5 melanoma = system: SK-MEL-5 melanoma
LOX IMVI melanoma = system: LOX IMVI melanoma
COLO 205 colon = system: COLO 205 colon
SF-539 CNS = system: SF-539 CNS

COc1ccc(C(=O)/C=C/c2cc3c(cc2Br)OCO3)cc1S(N)(=O)=O
GI50 (OVCAR-3 ovarian): 2550 nM
TGI (OVCAR-3 ovarian): 6.62 µM
GI50 (HS 578T breast): 20.8 µM
TGI (HS 578T breast): > 100 µM
GI50 (SK-MEL-28 melanoma): 14.3 µM
TGI (SK-MEL-28 melanoma): 30.2 µM
GI50 (NCI-H460 lung): 3.95 µM
TGI (NCI-H460 lung): > 100 µM
GI50 (K-562 leukemia): 445 nM
TGI (K-562 leukemia): 11.8 µM
GI50 (OVCAR-4 ovarian): 3.72 µM
TGI (OVCAR-4 ovarian): 32.3 µM
GI50 (NCI/ADR-RES ovarian): 2300 nM
TGI (NCI/ADR-RES ovarian): 6 µM
GI50 (SF-268 CNS): 5.33 µM
TGI (SF-268 CNS): 29.9 µM
GI50 (DU-145 prostate): 3.71 µM
TGI (DU-145 prostate): 12.7 µM
GI50 (M14 melanoma): 9.16 µM
TGI (M14 melanoma): 25.5 µM
GI50 (TK-10 renal): 14.6 µM
TGI (TK-10 renal): 36.3 µM
GI50 (KM12 colon): 2450 nM
TGI (KM12 colon): 6 µM
GI50 (UACC-62 melanoma): 4.07 µM
TGI (UACC-62 melanoma): 23.5 µM
GI50 (HCC-2998 colon): 5.39 µM
TGI (HCC-2998 colon): 24.2 µM
GI50 (BT-549 breast): 5.99 µM
TGI (BT-549 breast): 49 µM
GI50 (HOP-92 NSCLC): 5.46 µM
TGI (HOP-92 NSCLC): 23.5 µM
GI50 (EKVX NSCLC): 9.71 µM
TGI (EKVX NSCLC): 42.9 µM
GI50 (A498 renal): 15.2 µM
TGI (A498 renal): 28.8 µM
GI50 (ACHN renal): 1970 nM
TGI (ACHN renal): 4.11 µM
GI50 (MDA-MB-435): 13.6 µM
TGI (MDA-MB-435): 37.5 µM
GI50 (MALME-3M melanoma): 11.6 µM
TGI (MALME-3M melanoma): 27 µM
GI50 (786-0 renal): 3.68 µM
TGI (786-0 renal): 15.4 µM
GI50 (SR leukemia): 1540 nM
TGI (SR leukemia): 4.58 µM
GI50 (SK-MEL-5 melanoma): 9.12 µM
TGI (SK-MEL-5 melanoma): 29.2 µM
GI50 (LOX IMVI melanoma): 1680 nM
TGI (LOX IMVI melanoma): 3.16 µM
GI50 (COLO 205 colon): 5.39 µM
TGI (COLO 205 colon): > 100 µM
GI50 (SF-539 CNS): 1720 nM
TGI (SF-539 CNS): 3.27 µM
